Source: ChEMBL document CHEMBL5154803, “Spermine-Conjugated Short Proline-Rich Lipopeptides as Broad-Spectrum Intracellular Targeting Antibacterial Agents” (J Med Chem, 2022)
≈ marks a conversion by molar mass, not a printed value. Calls of active or inactive are those of the source. The calls are words filed in the database; no cut-off is given here. Where a SMILES comes first, the peptide text is derived from it. The star is where a group is joined. Lauroyl = CCCCCCCCCCCC(=O)*; Decanoyl = CCCCCCCCCC(=O)*; Spermine = NCCCNCCCCNCCCN*

How the values were obtained:
Staphylococcus aureus [1] = assay: Antibacterial activity against MDR-methicillin-resistant Staphylococcus aureus ATCC BAA-44 assessed as reduction in bacterial growth measured after 18 hrs by broth microdilution method; assay type: functional
Bacterial 70S ribosome = assay: Binding affinity to Escherichia coli MRE600 70S ribosome assessed as inhibition constant preincubated for 90 mins followed by incubation with Rho-C12-PR-Spn for 90 mins by competitive fluorescence binding assay; assay type: subcellular
Staphylococcus aureus [2] = assay: Antibacterial activity against methicillin-resistant Staphylococcus aureus ATCC 33591 assessed as reduction in bacterial growth measured after 18 hrs by broth microdilution method; assay type: functional
Staphylococcus aureus [3] = assay: In vivo antibacterial activity against Staphylococcus aureus ATCC 25923 infected in BALB/c mouse model assessed as reduction of bacterial load in liver at 5 mg/kg, ip administered as single dose measured after 24 hrs by colony counting based analysis (reference value: 8.1X10^4 CFU); assay type: functional
Erythrocyte = assay: Hemolytic activity against human RBC assessed as hemolysis upto 100 uM incubated for 1 hr by ELISA plate reader analysis; assay type: toxicity, cell-based
Staphylococcus aureus [4] = assay: Synergistic antibacterial activity against MDR-methicillin-resistant Staphylococcus aureus ATCC BAA-44 assessed as fractional inhibitory concentration index in presence of chloramphenicol by checkerboard assay; assay type: functional
Staphylococcus aureus [5] = assay: Synergistic antibacterial activity against MDR-methicillin-resistant Staphylococcus aureus ATCC BAA-44 assessed as fold change in neomycin MIC by checkerboard assay; assay type: functional
Staphylococcus aureus [6] = assay: Additive antibacterial activity against MDR-methicillin-resistant Staphylococcus aureus ATCC BAA-44 assessed as rifampicin MIC by checkerboard assay; assay type: functional
[7] = Cytotoxicity against human THP-1 cells assessed as cell viability at 100 uM by MTT assay; assay type: toxicity, cell-based; conditions: read-out: Activity
[8] = biological target: Bacterial 70S ribosome (Bacteria) (UniProt P0A7V0+P60723+P0AG67+P0A7R5+P0A7R9+P0A7S3+P0A7S9+P0AG59+P0ADZ4+P0A7T3+P0AG63+P0A7T7+P0A7U3+P0A7U7+P68679+P0A7V3+P0A7V8+P0A7W1+P02358+P02359+P0A7W7+P0A7X3+P0A7J3+P0A7J7+P0AA10+P0ADY3+P02413+P0ADY7+P0AG44+P0C018+P0A7K6+P0A7L0+P0A7L3+P0AG48+P61175+P0ADZ0+P60624+P68919+P0A7L8+P0A7M2+P0A7M6+P60422+P0AG51+P0A7N1+P0A7M9+P0A7N4+P0A7N9+P0A7P5+P0A7Q1+Q2EEQ2+P0A7Q6+P60438+P62399+P0AG55+P0A7K2); assay: Inhibition of 70S ribosome-mediated protein synthesis in Escherichia coli at 5XMIC incubated for 1 hr by renilla luciferase based luminescence assay; assay type: subcellular
Escherichia coli [9] = assay: Bacteriostatic activity against Escherichia coli ATCC 25922 at 1XMIC incubated for 4 hrs followed by plating on MHII agar pate for 24 hrs; assay type: functional, organism-based; conditions: time 28.0 hrs
[10] = Acute toxicity in BALB/c mouse assessed as effect on locomotor activity at 10 mg/kg, ip measured for 7 days; assay type: organism-based; conditions: in vivo, 168 h, time 7 day
Staphylococcus aureus [11] = assay: Synergistic antibacterial activity against MDR-methicillin-resistant Staphylococcus aureus ATCC BAA-44 assessed as fold change in ampicillin MIC by checkerboard assay; assay type: functional
Escherichia coli [12] = assay: Antibacterial activity against Escherichia coli MRE600 assessed as reduction in bacterial growth measured after 18 hrs by broth microdilution method; assay type: functional
Staphylococcus aureus [13] = assay: In vivo antibacterial activity against Staphylococcus aureus ATCC 25923 infected in BALB/c mouse model assessed as reduction of bacterial load in kidney at 5 mg/kg, ip administered as single dose measured after 24 hrs by colony counting based analysis (reference value: 2X10^4 CFU); assay type: functional
Staphylococcus aureus [14] = assay: Synergistic antibacterial activity against MDR-methicillin-resistant Staphylococcus aureus ATCC BAA-44 assessed as chloramphenicol MIC by checkerboard assay; assay type: functional
Staphylococcus aureus [15] = assay: Additive antibacterial activity against MDR-methicillin-resistant Staphylococcus aureus ATCC BAA-44 assessed as fold change in gentamicin MIC by checkerboard assay; assay type: functional
[16] = Cytotoxicity against human THP-1 cells assessed as cell viability at 50 uM by MTT assay; assay type: toxicity, cell-based; conditions: read-out: Activity
Cell membrane [17] = assay: Disruption of bacterial cell membrane in Escherichia coli ATCC 25922 assessed as proportion of bacteria with damaged cell membrane at 5X MIC incubated for 1 hr by PI staining based flow cytometric analysis (reference value: 0.7%); assay type: subcellular
Staphylococcus aureus [18] = assay: Additive antibacterial activity against MDR-methicillin-resistant Staphylococcus aureus ATCC BAA-44 assessed as fractional inhibitory concentration index in presence of rifampicin by checkerboard assay; assay type: functional
trypsin = trypsin (Homo sapiens, UniProt P07477+P07478+P35030); assay: Stability of compound assessed as trypsin (unknown origin)-mediated compound degradation by measuring parent compound remaining at 150 uM measured upto 4 hrs by RP-HPLC method; assay type: ADME, protein assay; conditions: read-out: Stability
[19] = Acute toxicity in BALB/c mouse assessed as mouse survival at 10 mg/kg, ip measured for 7 days; assay type: organism-based; conditions: in vivo, time 7 day
Staphylococcus aureus [20] = assay: Additive antibacterial activity against MDR-methicillin-resistant Staphylococcus aureus ATCC BAA-44 assessed as fold change in rifampicin MIC by checkerboard assay; assay type: functional
Cell membrane [21] = assay: Disruption of bacterial cell membrane in Escherichia coli ATCC 25922 assessed as proportion of bacteria with intact cell membrane at 1X MIC incubated for 1 hr by PI staining based flow cytometric analysis (reference value: 99.3%); assay type: subcellular
Cell membrane [22] = assay: Disruption of bacterial cell membrane in Escherichia coli ATCC 25922 assessed as proportion of bacteria with damaged cell membrane at 1X MIC incubated for 1 hr by PI staining based flow cytometric analysis (Rvb =0.7%); assay type: subcellular
Escherichia coli [23] = assay: Bactericidal activity against Escherichia coli ATCC 25922 assessed as log reduction of bacterial growth at 5XMIC incubated for 2 hrs followed by plating on MHII agar pate for 24 hrs; assay type: functional; conditions: time 26 hrs
Staphylococcus aureus [24] = assay: Synergistic antibacterial activity against MDR-methicillin-resistant Staphylococcus aureus ATCC BAA-44 assessed as ampicillin MIC by checkerboard assay; assay type: functional
Staphylococcus aureus [25] = assay: Synergistic antibacterial activity against MDR-methicillin-resistant Staphylococcus aureus ATCC BAA-44 assessed as fractional inhibitory concentration index in presence of neomycin by checkerboard assay; assay type: functional
Staphylococcus aureus [26] = assay: Synergistic antibacterial activity against MDR-methicillin-resistant Staphylococcus aureus ATCC BAA-44 assessed as neomycin MIC by checkerboard assay; assay type: functional
Staphylococcus aureus [27] = assay: In vivo antibacterial activity against Staphylococcus aureus ATCC 25923 infected in BALB/c mouse model assessed as reduction of bacterial load in spleen at 5 mg/kg, ip administered as single dose measured after 24 hrs by colony counting based analysis (reference value: 6X10^3 CFU); assay type: functional
[28] = test system: Staphylococcus epidermidis; assay: Antibacterial activity against methicillin-resistant Staphylococcus epidermidis ATCC 51625 assessed as reduction in bacterial growth measured after 18 hrs by broth microdilution method; assay type: functional
Staphylococcus aureus [29] = assay: Additive antibacterial activity against MDR-methicillin-resistant Staphylococcus aureus ATCC BAA-44 assessed as fractional inhibitory concentration index in presence of tetracycline by checkerboard assay; assay type: functional

Compound | MIC (Staphylococcus aureus [1]) [µM] | Ki (Bacterial 70S ribosome) [µM] | MIC (Staphylococcus aureus [2]) [µM] | Activity (Staphylococcus aureus [3]) | Activity (Erythrocyte) | fractional inhibitory concentration index (FICI) (Staphylococcus aureus [4]) | fold change (FC) (Staphylococcus aureus [5]) | MIC (Staphylococcus aureus [6]) [µg/mL] | viability at 100 µM [7] [%] | inhibition [8] | Activity (Escherichia coli [9]) | Activity [10] | fold change (FC) (Staphylococcus aureus [11]) | MIC (Escherichia coli [12]) [µM] | Activity (Staphylococcus aureus [13]) | MIC (Staphylococcus aureus [14]) [µg/mL] | fold change (FC) (Staphylococcus aureus [15]) | viability at 50 µM [16] [%] | Activity (Cell membrane [17]) [%] | fractional inhibitory concentration index (FICI) (Staphylococcus aureus [18]) | further results
CCCCCCCCCC(=O)N1CCC[C@H]1C(=O)N[C@@H](CCCNC(=N)N)C(=O)N1CCC[C@H]1C(=O)N[C@@H](CCCNC(=N)N)C(=O)N1CCC[C@H]1C(=O)N1CCC[C@H]1C(=O)N[C@@H](CCCNC(=N)N)C(=O)NCCCNCCCCNCCCN (Decanoyl-PRPRPPR-Spermine) | 3.1 (≈ 3.76 µg/mL) | 0.0338 | 3.1 (≈ 3.76 µg/mL) | <4 10^2CFU | Non-Toxic | 2 | 1.6 | 0.625 | 80 | Active | Active | Non-Toxic | 2 | 3.1 (≈ 3.76 µg/mL) | <4 10^2CFU | 1000 | 2 | 94 | 9.56 | 0.625 | remaining at 4 h, 150 µM (trypsin): > 80%; survival at 168 h [19]: 100%; fold change (FC) (Staphylococcus aureus [20]): 2; Activity (Cell membrane [21]): 93.9%; Activity (Cell membrane [22]): 6.11%; Activity (Escherichia coli [23]): >3 log10CFU/ml; MIC (Staphylococcus aureus [24]): 7.81 µg/mL; fractional inhibitory concentration index (FICI) (Staphylococcus aureus [25]): 0.312; MIC (Staphylococcus aureus [26]): 7.81 µg/mL; Activity (Staphylococcus aureus [27]): <4 10^2CFU; MIC [28]: 3.1 µM (≈ 3.76 µg/mL); fractional inhibitory concentration index (FICI) (Staphylococcus aureus [29]): 0.625
CCCCCCCCCCCC(=O)N1CCC[C@H]1C(=O)N[C@@H](CCCNC(=N)N)C(=O)N1CCC[C@H]1C(=O)N[C@@H](CCCNC(=N)N)C(=O)N1CCC[C@H]1C(=O)N1CCC[C@H]1C(=O)N[C@@H](CCCNC(=N)N)C(=O)NCCCNCCCCNCCCN (Lauroyl-PRPRPPR-Spermine) | 1.5 (≈ 1.86 µg/mL) | 0.0217 | 1.5 (≈ 1.86 µg/mL) | <4 10^2CFU | Non-Toxic | 0.5 | 1.6 | 0.625 | 65 | Active | Active | Non-Toxic | 4 | 3.1 (≈ 3.85 µg/mL) | <4 10^2CFU | 250 | 1 | 79 | 27.3 | 1 | remaining at 4 h, 150 µM (trypsin): > 80%; survival at 168 h [19]: 100%; fold change (FC) (Staphylococcus aureus [20]): 2; Activity (Cell membrane [21]): 92.9%; Activity (Cell membrane [22]): 7.09%; Activity (Escherichia coli [23]): >3 log10CFU/ml; MIC (Staphylococcus aureus [24]): 3.9 µg/mL; fractional inhibitory concentration index (FICI) (Staphylococcus aureus [25]): 0.312; MIC (Staphylococcus aureus [26]): 7.81 µg/mL; Activity (Staphylococcus aureus [27]): <4 10^2CFU; MIC [28]: 1.5 µM (≈ 1.86 µg/mL); fractional inhibitory concentration index (FICI) (Staphylococcus aureus [29]): 0.625
